Reference: ChEMBL document CHEMBL4507277

Experiments:
[1] = molecular target: ALK tyrosine kinase receptor (Homo sapiens) (UniProt Q9UM73); settings: Compound concentration 1000.0 nM
[2] = molecular target: Serine/threonine-protein kinase TAO1 (Homo sapiens) (UniProt Q7L7X3); settings: Compound concentration 1000.0 nM
[3] = molecular target: Mitogen-activated protein kinase kinase kinase 14 (Homo sapiens) (UniProt Q99558); settings: Compound concentration 1000.0 nM
[4] = molecular target: Serine/threonine-protein kinase RIO1 (Homo sapiens) (UniProt Q9BRS2); settings: Compound concentration 1000.0 nM
[5] = molecular target: Homeodomain-interacting protein kinase 1 (Homo sapiens) (UniProt Q86Z02); settings: Compound concentration 1000.0 nM
[6] = molecular target: Beta-3 adrenergic receptor (Homo sapiens) (UniProt P13945); settings: Compound concentration 10.0 uM
[7] = tested on: Tyrosine-protein kinase ABL1 (Homo sapiens), P00519 [H396P]; settings: Compound concentration 1000.0 nM
[8] = molecular target: TRAF2 and NCK-interacting protein kinase (Homo sapiens) (UniProt Q9UKE5); settings: Compound concentration 1000.0 nM
[9] = molecular target: Tyrosine-protein kinase BTK (Homo sapiens) (UniProt Q06187); settings: Compound concentration 1000.0 nM
[10] = molecular target: 5'-AMP-activated protein kinase catalytic subunit alpha-2 (Homo sapiens) (UniProt P54646); settings: Compound concentration 1000.0 nM
[11] = molecular target: Serine/threonine-protein kinase D2 (Homo sapiens) (UniProt Q9BZL6); settings: Compound concentration 1000.0 nM
[12] = molecular target: Membrane-associated tyrosine- and threonine-specific cdc2-inhibitory kinase (Homo sapiens) (UniProt Q99640); settings: Compound concentration 1000.0 nM
[13] = molecular target: Histamine H2 receptor (Homo sapiens) (UniProt P25021); settings: Compound concentration 10.0 uM
[14] = molecular target: Dual specificity mitogen-activated protein kinase kinase 7 (Homo sapiens) (UniProt O14733); settings: Compound concentration 1000.0 nM
[15] = molecular target: Calcium/calmodulin-dependent protein kinase type 1 (Homo sapiens) (UniProt Q14012); settings: Compound concentration 1000.0 nM
[16] = molecular target: Fibroblast growth factor receptor 2 (Homo sapiens) (UniProt P21802); settings: Compound concentration 1000.0 nM
[17] = molecular target: Serine/threonine-protein kinase DCLK2 (Homo sapiens) (UniProt Q8N568); settings: Compound concentration 1000.0 nM
[18] = tested on: Tyrosine-protein kinase ABL1 (Homo sapiens), P00519 [Y253F]; settings: Compound concentration 1000.0 nM
[19] = molecular target: Serine/threonine-protein kinase tousled-like 2 (Homo sapiens) (UniProt Q86UE8); settings: Compound concentration 1000.0 nM
[20] = molecular target: Calcium/calmodulin-dependent protein kinase type II subunit delta (Homo sapiens) (UniProt Q13557); settings: Compound concentration 1000.0 nM
Calcium/calmodulin-dependent protein kinase type II subunit delta (Homo sapiens), sequence (Q13557 whole entry): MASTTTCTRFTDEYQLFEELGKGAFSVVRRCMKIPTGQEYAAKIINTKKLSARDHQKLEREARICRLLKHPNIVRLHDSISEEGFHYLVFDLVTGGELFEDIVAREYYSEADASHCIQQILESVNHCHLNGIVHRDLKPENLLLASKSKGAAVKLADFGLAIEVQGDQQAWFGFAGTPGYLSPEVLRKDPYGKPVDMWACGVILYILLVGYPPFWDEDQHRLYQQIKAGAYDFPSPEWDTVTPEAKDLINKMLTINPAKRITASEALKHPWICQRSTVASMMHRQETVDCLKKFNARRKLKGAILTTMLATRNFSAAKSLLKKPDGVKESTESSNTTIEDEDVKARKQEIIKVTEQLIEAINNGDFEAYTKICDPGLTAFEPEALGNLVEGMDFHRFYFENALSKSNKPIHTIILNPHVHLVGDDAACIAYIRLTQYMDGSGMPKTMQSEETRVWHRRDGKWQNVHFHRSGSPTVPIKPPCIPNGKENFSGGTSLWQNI

[21] = molecular target: Phosphatidylinositol 5-phosphate 4-kinase type-2 gamma (Homo sapiens) (UniProt Q8TBX8); settings: Compound concentration 1000.0 nM
[22] = molecular target: Proto-oncogene tyrosine-protein kinase ROS (Homo sapiens) (UniProt P08922); settings: Compound concentration 1000.0 nM
[23] = tested on: Phosphatidylinositol 4,5-bisphosphate 3-kinase catalytic subunit alpha isoform (Homo sapiens), P42336 [E545K]; settings: Compound concentration 1000.0 nM
[24] = molecular target: Interferon-induced, double-stranded RNA-activated protein kinase (Homo sapiens) (UniProt P19525); settings: Compound concentration 1000.0 nM
[25] = molecular target: Dual specificity mitogen-activated protein kinase kinase 1 (Homo sapiens) (UniProt Q02750); settings: Compound concentration 1000.0 nM
[26] = molecular target: Aurora kinase B (Homo sapiens) (UniProt Q96GD4); settings: Compound concentration 1000.0 nM
[27] = molecular target: Mitogen-activated protein kinase kinase kinase 11 (Homo sapiens) (UniProt Q16584); settings: Compound concentration 1000.0 nM
[28] = molecular target: Mitogen-activated protein kinase 14 (Homo sapiens) (UniProt Q16539); settings: Compound concentration 1000.0 nM
Mitogen-activated protein kinase 14 (Homo sapiens), sequence (Q16539 whole entry): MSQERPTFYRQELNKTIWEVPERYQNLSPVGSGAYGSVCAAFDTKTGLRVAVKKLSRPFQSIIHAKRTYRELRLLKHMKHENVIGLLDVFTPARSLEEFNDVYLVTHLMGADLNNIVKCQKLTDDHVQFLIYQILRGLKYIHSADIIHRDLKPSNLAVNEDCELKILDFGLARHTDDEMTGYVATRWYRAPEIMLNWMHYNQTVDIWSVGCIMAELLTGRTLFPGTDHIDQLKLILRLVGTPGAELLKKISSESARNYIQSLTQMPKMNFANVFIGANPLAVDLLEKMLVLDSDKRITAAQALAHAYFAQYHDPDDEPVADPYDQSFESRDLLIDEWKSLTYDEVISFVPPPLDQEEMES

[29] = molecular target: Testis-specific serine/threonine-protein kinase 3 (Homo sapiens) (UniProt Q96PN8); settings: Compound concentration 1000.0 nM
[30] = molecular target: Transient receptor potential cation channel subfamily M member 6 (Homo sapiens) (UniProt Q9BX84); settings: Compound concentration 1000.0 nM
[31] = molecular target: Phosphorylase b kinase regulatory subunit alpha, liver isoform (Homo sapiens) (UniProt P46019); settings: Compound concentration 1000.0 nM
[32] = molecular target: Serine/threonine-protein kinase WNK1 (Homo sapiens) (UniProt Q9H4A3); settings: Compound concentration 1000.0 nM
Serine/threonine-protein kinase WNK1 (Homo sapiens), sequence (Q9H4A3 whole entry, looked up): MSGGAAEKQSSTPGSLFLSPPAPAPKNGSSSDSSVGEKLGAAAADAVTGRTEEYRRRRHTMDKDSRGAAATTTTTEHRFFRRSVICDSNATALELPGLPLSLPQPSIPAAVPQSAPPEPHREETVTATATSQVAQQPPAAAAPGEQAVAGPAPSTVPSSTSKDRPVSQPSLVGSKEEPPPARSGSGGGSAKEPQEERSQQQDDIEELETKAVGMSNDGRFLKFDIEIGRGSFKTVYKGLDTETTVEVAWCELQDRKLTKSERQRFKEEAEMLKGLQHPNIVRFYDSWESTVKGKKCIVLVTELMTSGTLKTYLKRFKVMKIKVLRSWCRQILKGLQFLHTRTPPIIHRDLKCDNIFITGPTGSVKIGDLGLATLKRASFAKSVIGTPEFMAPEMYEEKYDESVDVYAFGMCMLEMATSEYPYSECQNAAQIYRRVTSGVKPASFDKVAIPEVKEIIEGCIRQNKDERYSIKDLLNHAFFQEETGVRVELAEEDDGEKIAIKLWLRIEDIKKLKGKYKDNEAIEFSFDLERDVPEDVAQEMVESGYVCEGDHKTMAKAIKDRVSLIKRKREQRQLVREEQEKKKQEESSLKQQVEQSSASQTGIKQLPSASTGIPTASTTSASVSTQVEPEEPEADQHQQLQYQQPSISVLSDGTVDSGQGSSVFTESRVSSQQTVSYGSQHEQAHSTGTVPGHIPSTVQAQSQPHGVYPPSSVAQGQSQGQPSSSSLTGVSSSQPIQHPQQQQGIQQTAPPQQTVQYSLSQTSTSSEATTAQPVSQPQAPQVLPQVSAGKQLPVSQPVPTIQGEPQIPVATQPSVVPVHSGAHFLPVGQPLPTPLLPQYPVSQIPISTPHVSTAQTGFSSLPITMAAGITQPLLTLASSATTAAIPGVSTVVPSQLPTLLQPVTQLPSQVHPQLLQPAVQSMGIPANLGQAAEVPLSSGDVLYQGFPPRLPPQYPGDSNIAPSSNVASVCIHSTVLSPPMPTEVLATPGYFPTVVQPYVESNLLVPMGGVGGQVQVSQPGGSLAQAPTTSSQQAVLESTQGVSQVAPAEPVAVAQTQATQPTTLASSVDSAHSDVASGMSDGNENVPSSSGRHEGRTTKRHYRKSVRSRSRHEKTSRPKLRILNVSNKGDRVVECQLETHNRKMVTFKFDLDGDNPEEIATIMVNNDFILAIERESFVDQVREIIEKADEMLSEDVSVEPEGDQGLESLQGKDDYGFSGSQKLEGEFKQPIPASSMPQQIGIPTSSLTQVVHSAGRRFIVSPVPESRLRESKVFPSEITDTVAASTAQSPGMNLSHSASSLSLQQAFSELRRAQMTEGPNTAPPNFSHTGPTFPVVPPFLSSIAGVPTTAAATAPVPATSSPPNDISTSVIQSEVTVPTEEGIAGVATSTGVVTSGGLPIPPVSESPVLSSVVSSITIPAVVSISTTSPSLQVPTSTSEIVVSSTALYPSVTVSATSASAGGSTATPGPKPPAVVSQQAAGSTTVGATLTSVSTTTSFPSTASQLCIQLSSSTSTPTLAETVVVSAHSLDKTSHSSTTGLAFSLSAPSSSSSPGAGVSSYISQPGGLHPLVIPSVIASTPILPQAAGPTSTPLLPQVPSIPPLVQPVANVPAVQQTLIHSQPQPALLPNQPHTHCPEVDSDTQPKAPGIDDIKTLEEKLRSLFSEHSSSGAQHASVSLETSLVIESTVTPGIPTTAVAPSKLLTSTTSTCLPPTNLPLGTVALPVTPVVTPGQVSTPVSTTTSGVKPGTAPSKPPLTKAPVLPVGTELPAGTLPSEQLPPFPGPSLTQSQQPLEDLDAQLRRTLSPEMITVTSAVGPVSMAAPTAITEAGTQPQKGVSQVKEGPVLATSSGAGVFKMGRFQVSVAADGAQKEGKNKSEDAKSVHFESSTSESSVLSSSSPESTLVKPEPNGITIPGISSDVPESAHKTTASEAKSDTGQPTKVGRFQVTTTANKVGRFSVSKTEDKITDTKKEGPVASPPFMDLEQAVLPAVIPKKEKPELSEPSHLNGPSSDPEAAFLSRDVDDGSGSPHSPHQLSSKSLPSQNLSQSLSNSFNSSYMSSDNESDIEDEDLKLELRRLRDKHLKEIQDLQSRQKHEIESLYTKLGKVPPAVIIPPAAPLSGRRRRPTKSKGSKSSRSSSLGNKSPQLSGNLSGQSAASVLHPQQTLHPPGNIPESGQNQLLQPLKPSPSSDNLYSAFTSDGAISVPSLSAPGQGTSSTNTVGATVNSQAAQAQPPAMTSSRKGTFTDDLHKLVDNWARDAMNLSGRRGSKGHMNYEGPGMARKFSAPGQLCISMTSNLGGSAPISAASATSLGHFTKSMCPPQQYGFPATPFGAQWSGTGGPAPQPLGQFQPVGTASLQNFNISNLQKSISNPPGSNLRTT

[33] = molecular target: Protein kinase C epsilon type (Homo sapiens) (UniProt Q02156); settings: Compound concentration 1000.0 nM
[34] = molecular target: Serine/threonine-protein kinase TNNI3K (Homo sapiens) (UniProt Q59H18); settings: Compound concentration 1000.0 nM
Serine/threonine-protein kinase TNNI3K (Homo sapiens), sequence (Q59H18 whole entry): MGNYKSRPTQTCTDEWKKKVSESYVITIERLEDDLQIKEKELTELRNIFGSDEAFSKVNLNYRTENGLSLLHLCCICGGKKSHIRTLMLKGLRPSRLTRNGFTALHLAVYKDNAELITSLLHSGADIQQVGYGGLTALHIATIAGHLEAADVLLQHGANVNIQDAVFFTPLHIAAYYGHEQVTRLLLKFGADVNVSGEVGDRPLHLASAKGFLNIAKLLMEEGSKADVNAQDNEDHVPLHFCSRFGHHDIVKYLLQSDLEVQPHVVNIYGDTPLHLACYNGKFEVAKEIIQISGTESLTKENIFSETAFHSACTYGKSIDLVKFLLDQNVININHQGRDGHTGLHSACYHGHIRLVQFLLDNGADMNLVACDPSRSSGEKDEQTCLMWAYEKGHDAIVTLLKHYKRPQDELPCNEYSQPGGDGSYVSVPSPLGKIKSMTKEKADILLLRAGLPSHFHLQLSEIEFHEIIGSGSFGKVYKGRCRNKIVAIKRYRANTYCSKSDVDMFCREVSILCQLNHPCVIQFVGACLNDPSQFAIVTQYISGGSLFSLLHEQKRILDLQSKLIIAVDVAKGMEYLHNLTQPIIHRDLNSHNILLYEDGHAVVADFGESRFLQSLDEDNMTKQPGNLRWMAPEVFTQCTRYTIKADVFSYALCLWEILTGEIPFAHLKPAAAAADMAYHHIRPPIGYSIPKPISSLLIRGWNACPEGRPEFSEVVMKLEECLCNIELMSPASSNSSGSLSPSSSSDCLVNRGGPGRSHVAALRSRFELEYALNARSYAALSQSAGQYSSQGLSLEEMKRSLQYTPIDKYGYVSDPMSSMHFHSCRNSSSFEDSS

[35] = molecular target: Tyrosine-protein kinase receptor UFO (Homo sapiens) (UniProt P30530); settings: Compound concentration 1000.0 nM
Tyrosine-protein kinase receptor UFO (Homo sapiens), sequence (P30530 whole entry): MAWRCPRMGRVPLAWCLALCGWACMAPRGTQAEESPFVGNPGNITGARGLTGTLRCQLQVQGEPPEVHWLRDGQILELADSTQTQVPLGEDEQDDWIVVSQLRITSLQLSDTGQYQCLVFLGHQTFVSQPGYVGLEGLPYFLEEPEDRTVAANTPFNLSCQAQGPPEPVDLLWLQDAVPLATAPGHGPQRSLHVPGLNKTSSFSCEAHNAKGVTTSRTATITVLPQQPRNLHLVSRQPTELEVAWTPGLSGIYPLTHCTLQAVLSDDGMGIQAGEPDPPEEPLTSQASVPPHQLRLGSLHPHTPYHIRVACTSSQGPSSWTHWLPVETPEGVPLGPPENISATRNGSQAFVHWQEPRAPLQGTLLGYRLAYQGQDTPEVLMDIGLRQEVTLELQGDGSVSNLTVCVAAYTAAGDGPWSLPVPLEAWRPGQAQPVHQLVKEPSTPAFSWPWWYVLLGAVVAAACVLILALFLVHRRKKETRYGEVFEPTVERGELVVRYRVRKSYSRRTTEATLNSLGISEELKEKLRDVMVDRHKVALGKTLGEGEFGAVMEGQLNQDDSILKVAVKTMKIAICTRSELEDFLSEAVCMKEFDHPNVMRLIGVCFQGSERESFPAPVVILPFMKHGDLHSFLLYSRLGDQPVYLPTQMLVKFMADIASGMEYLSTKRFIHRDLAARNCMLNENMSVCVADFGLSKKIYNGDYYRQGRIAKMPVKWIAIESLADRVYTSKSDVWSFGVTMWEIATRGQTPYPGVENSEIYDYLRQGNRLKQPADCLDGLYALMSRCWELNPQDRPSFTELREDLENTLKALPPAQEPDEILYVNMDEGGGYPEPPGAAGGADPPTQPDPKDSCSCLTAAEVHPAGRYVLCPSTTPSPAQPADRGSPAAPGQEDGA

[36] = molecular target: Protein-tyrosine kinase 6 (Homo sapiens) (UniProt Q13882); settings: Compound concentration 1000.0 nM
[37] = molecular target: 5-hydroxytryptamine receptor 7 (Homo sapiens) (UniProt P34969); settings: Compound concentration 10.0 uM
[38] = molecular target: Death-associated protein kinase 1 (Homo sapiens) (UniProt P53355); settings: Compound concentration 1000.0 nM
[39] = molecular target: Tyrosine-protein kinase JAK1 (Homo sapiens) (UniProt P23458); settings: Compound concentration 1000.0 nM
[40] = molecular target: MAP/microtubule affinity-regulating kinase 3 (Homo sapiens) (UniProt P27448); settings: Compound concentration 1000.0 nM
[41] = molecular target: Receptor-interacting serine/threonine-protein kinase 4 (Homo sapiens) (UniProt P57078); settings: Compound concentration 1000.0 nM
[42] = molecular target: Cyclin-dependent kinase 15 (Homo sapiens) (UniProt Q96Q40); settings: Compound concentration 1000.0 nM
[43] = molecular target: Myosin light chain kinase 2, skeletal/cardiac muscle (Homo sapiens) (UniProt Q9H1R3); settings: Compound concentration 1000.0 nM
[44] = molecular target: Rhodopsin kinase GRK7 (Homo sapiens) (UniProt Q8WTQ7); settings: Compound concentration 1000.0 nM
[45] = molecular target: Calcium/calmodulin-dependent protein kinase type 1D (Homo sapiens) (UniProt Q8IU85); settings: Compound concentration 1000.0 nM

`CCS(=O)(=O)c1cc2cc(C[C@](O)(CC(C)(C)c3ccc(F)cc3C(N)=O)C(F)(F)F)[nH]c2cn1` showed a residual activity [1] of 100%, a residual activity [2] of 88% and a residual activity [3] of 88%. For the same molecule, the residual activity [4] was 80%, the residual activity [5] was 94% and the inhibition [6] was 13%. For the same molecule, the residual activity [7] was 89%, the residual activity [8] was 100% and the residual activity [9] was 100%. For the same molecule, the residual activity [10] was 97%, the residual activity [11] was 96% and the residual activity [12] was 100%. It also gave an inhibition [13] of 12.3%, a residual activity [14] of 99% and a residual activity [15] of 86%. It also gave a residual activity [16] of 100%, a residual activity [17] of 100% and a residual activity [18] of 93%. For the same molecule, the residual activity [19] was 100%, the residual activity [20] was 100% and the residual activity [21] was 100%. It also gave a residual activity [22] of 100%, a residual activity [23] of 80% and a residual activity [24] of 52%. For the same molecule, the residual activity [25] was 91%, the residual activity [26] was 92% and the residual activity [27] was 100%. It also gave a residual activity [28] of 100%, a residual activity [29] of 100% and a residual activity [30] of 86%. For the same molecule, the residual activity [31] was 100%, the residual activity [32] was 97% and the residual activity [33] was 96%. For the same molecule, the residual activity [34] was 80%, the residual activity [35] was 89% and the residual activity [36] was 100%. The inhibition [37] was 4.98%, the residual activity [38] was 92% and the residual activity [39] was 95%. The residual activity [40] was 100%, the residual activity [41] was 93% and the residual activity [42] was 88%. The residual activity [43] was 98%, the residual activity [44] was 100% and the residual activity [45] was 100%.
For `CCS(=O)(=O)c1cc2cc(C[C@@](O)(CC(C)(C)c3ccc(F)cc3C(N)=O)C(F)(F)F)[nH]c2cn1`, the residual activity [1] was 100%, the residual activity [2] was 73% and the residual activity [3] was 59%. For the same molecule, the residual activity [4] was 50%, the residual activity [5] was 90% and the inhibition [6] was 0.63%. For the same molecule, the residual activity [7] was 99%, the residual activity [8] was 97% and the residual activity [9] was 100%. The residual activity [10] was 100%, the residual activity [11] was 89% and the residual activity [12] was 67%. The inhibition [13] was 6.84%, the residual activity [14] was 99% and the residual activity [15] was 57%. It also gave a residual activity [16] of 95%, a residual activity [17] of 100% and a residual activity [18] of 72%. For the same molecule, the residual activity [19] was 97%, the residual activity [20] was 81% and the residual activity [21] was 100%. It also gave a residual activity [22] of 90%, a residual activity [23] of 79% and a residual activity [24] of 61%. It also gave a residual activity [25] of 68%, a residual activity [26] of 71% and a residual activity [27] of 92%. It also gave a residual activity [28] of 97%, a residual activity [29] of 96% and a residual activity [30] of 72%. It also gave a residual activity [31] of 100%, a residual activity [32] of 90% and a residual activity [33] of 100%. It also gave a residual activity [34] of 100%, a residual activity [35] of 100% and a residual activity [36] of 97%. The inhibition [37] was 4.44%, the residual activity [38] was 0% and the residual activity [39] was 90%. For the same molecule, the residual activity [40] was 100%, the residual activity [41] was 100% and the residual activity [42] was 59%. The residual activity [43] was 100%, the residual activity [44] was 95% and the residual activity [45] was 89%.
